Assay results published in patent EP2319525A1, “Composition for treating insulin resistance” (Universitätsklinikum Hamburg-Eppendorf, priority 2009, dated 2011).
Side chains are listed from the residue outwards. Peptide text beside a SMILES is read from it. * marks the point of attachment. Nicotinoyl = O=C(c1cccnc1)*; Cbz = O=C(OCc1ccccc1)*

How the values were obtained:
Format in all cases: cell-based, rodent
L6 myotubes [1] = assay: Uptake of H-3-labeled 2-Deoxy-D-glucose in differentiated L6 myotubes, short-term incubation (20 min + 10 min); conditions: CGP-42112A 10^-8 mol/L, alone and in combination with losartan 10^-7 mol/L
Method: The data presented below were generated in the rodent myoblast cell line L6 (ATCC #CRL-1458). […] L6 myotubes express both the AT-1 and the AT-2 receptor at relevant levels making these cells an ideal model to test the interference of both receptors with basal and insulin-mediated glucose uptake. L6 myoblasts were maintained as proliferating myoblasts in DMEM high glucose medium supplemented with 10% FCS, 4 mM L-glutamine, 1 mM pyruvate at 37°C in the presence of 5% CO2. The seeding density used for the experiments was 2 x 10^4 cells/cm^2 on 1% gelatincoated dishes. To induce differentiation of myoblasts into myotubes, 90-100% confluent cultures (cultured on standard 6-well plates) were switched to DMEM supplemented with 2% adult horse serum. […] The uptake of H-3-labeled 2-Deoxy-D-glucose (GE Healthcare Biosciences), which cannot undergo further glycolysis, was measured as follows: • H-3-labeled 2-Deoxy-D-glucose uptake in the differentiated myotubes was analysed as described previously ([…] et al., Diabetologia (2005); 48 (1) :132-9) with minor modifications. […] Cell lysates were transferred to scintillation vials for radioactivity counting. Non-specific uptake was determined in the presence of cytochalasin B (10 μmol/L) and was subtracted from all values. […] The uptake of H-3-labeled 2-Deoxy-D-glucose was measured as described in Example 1 above.

L6 myotubes [2] = assay: as above
Method: (§1) The data presented below were generated in the rodent myoblast cell line L6 (ATCC #CRL-1458). […] L6 myotubes express both the AT-1 and the AT-2 receptor at relevant levels making these cells an ideal model to test the interference of both receptors with basal and insulin-mediated glucose uptake. L6 myoblasts were maintained as proliferating myoblasts in DMEM high glucose medium supplemented with 10% FCS, 4 mM L-glutamine, 1 mM pyruvate at 37°C in the presence of 5% CO2. The seeding density used for the experiments was 2 x 10^4 cells/cm^2 on 1% gelatincoated dishes. To induce differentiation of myoblasts into myotubes, 90-100% confluent cultures (cultured on standard 6-well plates) were switched to DMEM supplemented with 2% adult horse serum. Myoblast growth and myotube formation were examined using phase-contrast microscopy. The medium was changed every 2 days, and differentiation was allowed to continue for 10 days before the experimentation period.
(§2) L6 myotubes (n=9-12) cultured as described in example 1 were incubated either with angiotensin II (10^-7 mol/l), with a combination of angiotensin II (10^-7 mol/l) and AT-1 receptor blocker losartan (10^-7 mol/L), or with a combination of angiotensin II (10^-7 mol/l), losartan (10^-7 mol/L) and AT-2 receptor blocker PD 123319 (10^-7 mol/L). The uptake of H-3-labeled 2-Deoxy-D-glucose (GE Healthcare Biosciences), which cannot undergo further glycolysis, was measured as follows: • H-3-labeled 2-Deoxy-D-glucose uptake in the differentiated myotubes was analysed as described previously (Ceddia et al., Diabetologia (2005); 48 (1) :132-9) with minor modifications. Differentiated myotubes were serum-starved overnight in DMEM containing 1% glucose before being incubated with angiotensin II, the AT-1 receptor blocker losartan, and/or the AT-2 receptor blocker PD123319. […] Cell lysates were transferred to scintillation vials for radioactivity counting. Non-specific uptake was determined in the presence of cytochalasin B (10 µmol/L) and was subtracted from all values. […]

L6 myotubes [3] = assay: Long-term (24 hours) stimulation: basal and insulin-mediated uptake of H-3-labeled 2-Deoxy-D-glucose in L6 myotubes
Method: as §1, §2

[4] = PD 123319 10^-7 mol/L added to angiotensin II 10^-7 mol/L + losartan 10^-7 mol/L

CC[C@H](C)[C@H](NC(=O)[C@@H]1CCCN1C(=O)[C@H](Cc1c[nH]cn1)NC(=O)[C@H](CCCCNC(=O)[C@H](CCCNC(=N)N)NC(=O)OCc1ccccc1)NC(=O)[C@H](Cc1ccc(O)cc1)NC(=O)c1cccnc1)C(=O)O [CGP-42112A] (Nicotinoyl-YK([Arg-Cbz])HPI-OH)
glucose uptake compared with the effect of angiotensin II (L6 myotubes [1]): mimicked

Cc1cc(Cn2cnc3c2CC(C(=O)O)N(C(=O)C(c2ccccc2)c2ccccc2)C3)ccc1N(C)C (stereo not shown) [PD123319]
effect on the CGP-42112A-induced glucose uptake (L6 myotubes [2]; PD 123319 10^-7 mol/L added to CGP-42112A 10^-8 mol/L + losartan 10^-7 mol/L): completely blocked
effect on the glucose uptake enhanced by angiotensin II in the presence of losartan (L6 myotubes [2]; [4]): inhibited
uptake of H-3-labeled 2-Deoxy-D-glucose (L6 myotubes [2]; substance alone, 10^-7 mol/L, L6 myotubes, n=9-12): did not affect
effect on the glucose uptake enhanced by angiotensin II in the presence of losartan (L6 myotubes [3]; [4]): completely absent

CCCCc1nc(Cl)c(CO)n1Cc1ccc(-c2ccccc2-c2nn[nH]n2)cc1 [losartan]
basal glucose uptake of L6 myotubes (L6 myotubes [3]; losartan 10^-7 mol/L alone): induced
insulin-mediated glucose uptake of L6 myotubes (L6 myotubes [3]; losartan 10^-7 mol/L alone, insulin 1 µg/ml): induced
